Measured values taken from the supplement of paper PMC10307832.

Legend:
Test in all cases: relative viability (nuclei count vs DMSO), 5 days (fraction); higher = more cells survive
[1] = compound: CC(O)(CS(=O)(=O)c1ccc(F)cc1)C(=O)Nc1ccc(C#N)c(C(F)(F)F)c1 [Bicalutamide] + Nc1ncn([C@H]2C[C@H](O)[C@@H](CO)O2)c(=O)n1 [Decitabine] (partner 2 µM)
Procedure, shortened: (§1)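 One day after seeding in 1536-well plates, lung cancer cell lines were dosed by pin tool. Dosing was either single-drug or a fixed anchor-drug dose plus five library-drug doses (not always all listed) in √10 steps. After 5 days, nuclei were stained in one fix-and-stain step and counted on 4× images, and relative viability is the nuclei count of treated wells over that of vehicle wells, given as the median of duplicate plates.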

[2] = compound: CC(O)(CS(=O)(=O)c1ccc(F)cc1)C(=O)Nc1ccc(C#N)c(C(F)(F)F)c1 [Bicalutamide] + C[C@@H](Oc1cc(-c2cnn(C3CCNCC3)c2)cnc1N)c1c(Cl)ccc(F)c1Cl [Crizotinib] (partner 1 µM)
Procedure, shortened: as §1

[3] = compound: C(C(=O)C(=O)O)Br [Bromopyruvate] + CC(=O)c1c(C)c2cnc(Nc3ccc(N4CCNCC4)cn3)nc2n(C2CCCC2)c1=O [Palbociclib] (partner 0.5 µM)
Procedure, shortened: as §1

Bromopyruvate + AZD7762 = compound: C(C(=O)C(=O)O)Br [Bromopyruvate] + NC(=O)Nc1cc(-c2cccc(F)c2)sc1C(=O)N[C@H]1CCCNC1 [AZD7762] (partner 0.2 µM)
Procedure, shortened: as §1

Cell Line | relative viability ([1]; first compound 0.08 µM) | relative viability ([1]; first compound 0.8 µM) | relative viability ([1]; first compound 2.53 µM) | relative viability ([2]; first compound 0.08 µM) | relative viability ([2]; first compound 0.253 µM) | relative viability ([2]; first compound 0.8 µM) | relative viability ([2]; first compound 2.53 µM) | relative viability ([3]; first compound 1 µM) | relative viability ([3]; first compound 3.162 µM) | relative viability ([3]; first compound 10 µM) | relative viability ([3]; first compound 31.62 µM) | relative viability ([3]; first compound 100 µM) | relative viability (Bromopyruvate + AZD7762; first compound 1 µM) | relative viability (Bromopyruvate + AZD7762; first compound 3.162 µM) | relative viability (Bromopyruvate + AZD7762; first compound 31.62 µM) | relative viability (Bromopyruvate + AZD7762; first compound 100 µM) | relative viability ([1]; first compound 0.253 µM) | relative viability (Bromopyruvate + AZD7762; first compound 10 µM)
HARA | 0.632 | 0.536 | 0.574 | 0.946 | 1.07 | 1.19 | 1.09 | 0.254 | 0.283 | 0.296 | 0.259 | 0.261 | 1.98 | 0.393 | 0.298 | 0.289 |  | 
NCI-H2126 | 0.572 | 0.582 | 0.528 | 1.06 | 0.983 | 1.06 | 0.945 | 0.34 | 0.335 | 0.306 | 0.375 | 0.343 | 0.989 | 1.04 | 0.953 | 1.04 | 0.537 | 1.2
NCI-H1437 | 0.554 | 0.599 | 0.616 | 0.899 | 0.893 | 0.895 | 0.923 | 0.342 | 0.285 | 0.323 | 0.314 | 0.305 | 1.15 | 1.1 | 1.12 | 1.14 | 0.501 | 1.22
NCI-H1792 | 0.543 | 0.618 | 0.548 | 0.922 | 0.888 | 1.02 | 1.02 | 0.673 | 0.698 | 0.684 |  | 0.656 | 0.678 | 0.783 | 0.798 | 0.655 | 0.466 | 0.792
ChaGo-K-1 | 0.524 | 0.561 | 0.551 | 1.27 | 1.1 | 1.16 | 1.03 | 0.93 | 0.947 | 0.979 | 0.87 | 0.876 | 0.881 | 0.868 | 0.866 | 0.92 | 0.46 | 0.874
LK-2 | 0.345 | 0.329 | 0.305 | 0.252 | 0.209 | 0.2 | 0.225 | 0.688 | 0.858 | 0.797 | 0.637 | 0.678 | 0.423 | 0.458 | 0.474 | 0.387 | 0.238 | 0.266
201T | 0.87 | 0.857 | 0.889 | 1.04 | 0.942 | 1.01 | 1.06 | 0.341 | 0.348 | 0.344 | 0.35 | 0.382 | 0.638 | 0.715 | 0.594 | 0.603 | 0.847 | 0.6
HCC-44 | 0.967 | 0.942 | 0.959 | 0.838 | 0.817 | 0.832 | 0.968 | 0.985 | 0.912 | 0.944 | 1.01 | 0.991 | 0.959 | 1.01 | 1.02 | 1.04 | 0.911 | 0.963
NCI-H647 | 0.601 | 0.34 | 0.338 | 1.11 | 1.23 | 1.56 | 0.777 | 0.4 | 0.312 | 0.466 | 0.386 | 0.506 | 0.565 | 0.63 | 0.553 | 0.568 | 0.328 | 0.405
H3255 | 0.601 | 0.668 | 0.525 | 0.963 | 0.845 | 1.05 | 0.719 | 0.314 | 0.31 | 0.297 | 0.308 | 0.309 | 0.907 | 0.86 | 0.886 | 0.836 | 0.571 | 0.964
NCI-H650 | 0.318 | 0.333 | 0.335 | 0.725 | 0.645 | 0.932 | 0.438 | 0.385 | 0.306 | 0.316 | 0.338 | 0.335 | 0.931 | 1.18 | 1.05 | 0.945 | 0.308 | 0.934
NCI-H2085 | 0.555 | 0.553 | 0.525 | 0.904 | 0.822 | 0.816 | 0.745 | 0.491 | 0.469 | 0.489 | 0.539 | 0.521 | 0.947 | 1.01 | 0.991 | 0.95 | 0.601 | 1.04
NCI-H2347 | 0.583 | 0.628 | 0.634 | 0.797 | 0.621 | 0.689 | 0.675 | 0.44 | 0.493 | 0.399 | 0.405 | 0.448 | 0.751 | 0.79 | 0.711 | 0.773 | 0.651 | 0.754
NCI-H1944 | 0.441 | 0.428 | 0.462 | 1.07 | 0.982 | 1.28 | 1.12 | 0.32 | 0.333 | 0.335 | 0.319 | 0.311 | 0.579 | 0.521 | 0.514 | 0.54 | 0.433 | 0.576
EKVX | 0.336 | 0.32 | 0.333 | 0.924 | 0.81 | 1.14 | 0.801 | 0.217 | 0.387 | 0.459 | 0.494 | 0.44 | 0.818 | 0.791 | 0.61 | 0.693 | 0.37 | 0.662
NCI-H358 | 0.224 | 0.193 | 0.204 | 0.831 | 0.616 | 0.44 | 0.399 | 0.113 | 0.132 | 0.168 | 0.127 | 0.142 | 0.656 | 0.578 | 0.505 | 0.555 | 0.224 | 0.609
EPLC-272H | 0.384 | 0.382 | 0.342 | 0.947 | 0.898 | 1.01 | 0.833 | 0.321 | 0.372 | 0.386 | 0.31 | 0.362 | 0.236 | 0.205 | 0.313 | 0.258 | 0.373 | 0.346
